# Measured values reported in US5482996A, “Protein-containing polymers and a method of synthesis of protein-containing polymers in organic solvents” (University of Pittsburgh, priority 1993, dated 1996).
# Starred links: 1 amine or outer side, 2 acyl side, 3 side chain; linkers in the order of their positions; H or OH if unused. Residues, ends and D or L forms follow the SMILES beside them. *: point of attachment. pNA = O=[N+]([O-])c1ccc(N*)cc1; Suc = O=C(CCC(=O)[*:2])[*:1]
# Columns and labels:
# Experiment in all cases: Hydrolysis of peptide p-nitroanilide substrate, kinetic constants
# Assay type in all cases: biochemical
# [1] = molecular target: T1, Subtilisin Carlsberg, native (pure subtilisin standard) (Bacillus licheniformis, UniProt P00780)
# T1 construct: purchased Sigma Chemical Co
# T1 sequence (P00780 106-379): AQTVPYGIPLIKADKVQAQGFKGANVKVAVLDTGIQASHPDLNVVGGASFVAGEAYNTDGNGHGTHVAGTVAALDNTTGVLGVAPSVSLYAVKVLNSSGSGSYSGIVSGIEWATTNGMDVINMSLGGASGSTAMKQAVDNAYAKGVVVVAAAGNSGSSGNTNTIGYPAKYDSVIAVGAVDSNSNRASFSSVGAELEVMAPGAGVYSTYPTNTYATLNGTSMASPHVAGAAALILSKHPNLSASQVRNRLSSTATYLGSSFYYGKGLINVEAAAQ
# Description: (§1) Kinetic studies of the modified protein were performed using substrate (N-succinyl-L-alanyl-L-alanyl-L-prolyl-L-phenylalanyl p-nitroanilide) in 0.1M Tris-HCl buffer, pH 8.6. The purified HPLC fractions (three total) were tested for activity while increasing the substrate concentrations in equal increments. Substrate concentration versus rate was plotted to determine Vmax and Km using non-linear regression analysis. A standard of pure subtilisin was analyzed as a control.
# (§2) As set forth above, the activity of the modified enzymes was assessed with the artificial peptide substrate succinyl-L-alanyl-L-alanyl-L-prolyl-L-phenylalanyl p-nitroanilide. A sample of 30 mg modified protein powder was dissolved in tetrahydrofuran, and filtered with a solvent resistant 0.22 μm filter in order to remove the insoluble native protein. The solvent was evaporated and, as mentioned above, values for Vmax and Km were determined.
# [2] = molecular target: T2, Subtilisin Carlsberg, doubly modified with PEG monomethacrylate (MW 8,000) (Bacillus licheniformis, UniProt P00780)
# T2 construct: purchased Sigma Chemical Co
# T2 sequence (P00780 106-379): T1 sequence (P00780 106-379)
# Description: as §1
# (§3) Before reacting PEG-subtilisin with other materials it is necessary to fully characterize the activity and stability of the "bio-monomer". Using solubility, IMAC, and HPLC the modified protein was separated into predominantly singly or doubly modified protein fractions. […] Thus, the activities and stabilities noted are average properties for the sample being studied. For comparison to the native protein, unmodified protein was purified from the modification reaction mixture and characterized to some degree.
# as §2
# [3] = molecular target: T3, Subtilisin Carlsberg, singly modified with PEG monomethacrylate (MW 8,000) (Bacillus licheniformis, UniProt P00780); details: 25% dioxane/75% buffer
# T3 construct: purchased Sigma Chemical Co
# T3 sequence (P00780 106-379): T1 sequence (P00780 106-379)
# Description: as §1, §3, §2
# [4] = molecular target: T4, Subtilisin Carlsberg, unmodified fraction purified from the PEG modification reaction mixture (Bacillus licheniformis, UniProt P00780)
# T4 construct: purchased Sigma Chemical Co
# T4 sequence (P00780 106-379): T1 sequence (P00780 106-379)
# Description: as §1, §3, §2
structure (smiles),measurement,setting,value
C[C@H](NC(=O)CCC(=O)O)C(=O)N[C@@H](C)C(=O)N1CCC[C@H]1C(=O)N[C@@H](Cc1ccccc1)C(=O)Nc1ccc([N+](=O)[O-])cc1 [N-succinyl-L-alanyl-L-alanyl-L-prolyl-L-phenylalanyl p-nitroanilide] (Suc-AAPF-pNA),Vmax,[1]; 25% dioxane/75% buffer,66.2 ΔA412/sec/mg protein
same,Vmax,"[1]; Tris-HCl buffer (0.1M, pH 8.6)",108 ΔA412/sec/mg protein
same,Vmax,[2]; 25% dioxane/75% buffer,1.8 ΔA412/sec/mg protein
same,Vmax,"[2]; Tris-HCl buffer (0.1M, pH 8.6)",1.6 ΔA412/sec/mg protein
same,Vmax,[3],5.3 ΔA412/sec/mg protein
same,Vmax,[4]; 25% dioxane/75% buffer,2.9 ΔA412/sec/mg protein
same,Vmax,"[4]; Tris-HCl buffer (0.1M, pH 8.6)",2.2 ΔA412/sec/mg protein
